The source made the active and inactive calls. The rule behind the calls is not given here.
Assays:
HeLa [1] = assay: Inhibition of Na(+)/K(+) ATPase alpha-1 expression in human HeLa cells at 150 nM after 24 hrs by immunoblotting; format: functional, cell-based
[2] = target: T1, Sodium/potassium-transporting ATPase (Homo sapiens) (UniProt P05023+P14415+P05026+P50993+P54709+P13637+Q13733+P54710); settings: HeLa, 150 nM
Description: Inhibition of Na(+)/K(+) ATPase in human HeLa cells at 150 nM after 24 hrs by immunoblotting

[3] = Cytotoxicity against human RKO-AS45-1 cells after 48 hrs by MTT assay; format: functional, cell-based; settings: RKOAS451, 48 h
HeLa [4] = assay: Inhibition of Na(+)/K(+) ATPase alpha-1 expression in human HeLa cells at 10 uM after 24 hrs by immunoblotting; format: functional, cell-based
[5] = target: T2, Sodium/potassium-transporting ATPase subunit alpha-1 (Homo sapiens, UniProt P05023); assay: Inhibition of human kidney Na(+)/K(+) ATPase alpha-1 assessed as amount of Pi release after 1 hr by colorimetric method
HeLa [6] = assay: Selectivity index, ratio of IC50 for human WI-26 VA4 cells to IC50 for human HeLa cells; format: functional
[7] = Selectivity index, ratio of IC50 for human WI-26 VA4 cells to IC50 for human RKO-AS45-1 cells; format: functional
[8] = Cytotoxicity against human WI-26 VA4 cells after 48 hrs by MTT assay; format: cell-based; settings: WI26VA4, 48 h
[9] = target: Sodium/potassium-transporting ATPase subunit alpha-2/alpha-3 (Rattus norvegicus, UniProt P06686+P06687); assay: Inhibition of Wistar rat brain Na(+)/K(+) ATPase alpha-2/3 assessed as amount of Pi release after 1 hr by colorimetric method
[10] = target: T1, Sodium/potassium-transporting ATPase (Homo sapiens); assay: Inhibition of Na(+)/K(+) ATPase in human HeLa cells at 10 uM after 24 hrs by immunoblotting; format: cell-based
HeLa [11] = assay: Cytotoxicity against human HeLa cells after 48 hrs by MTT assay; format: functional, cell-based
[12] = target: Sodium/potassium-transporting ATPase subunit alpha-2/alpha-3 (Rattus norvegicus) (UniProt P06686+P06687); assay: Inhibition of Wistar rat brain Na(+)/K(+) ATPase alpha-2/3 assessed as amount of Pi release at 10 uM after 1 hr by colorimetric method
[13] = target: T2, Sodium/potassium-transporting ATPase subunit alpha-1; assay: Inhibition of human kidney Na(+)/K(+) ATPase alpha-1 assessed as amount of Pi release at 10 uM after 1 hr by colorimetric method

SMILES | inhibition (HeLa [1]) | inhibition [2] | IC50 [3] [µM] | inhibition (HeLa [4]) | IC50 [5] [µM] | Ratio IC50 (HeLa [6]) | Ratio IC50 [7] | IC50 [8] [µM] | IC50 [9] [µM] | inhibition [10] | IC50 (HeLa [11]) [µM] | inhibition [12] | inhibition [13]
C[C@H]1O[C@@H](O[C@H]2[C@@H](O)C[C@H](O[C@H]3[C@@H](O)C[C@H](O[C@H]4CC[C@@]5(C)[C@H](CC[C@@H]6[C@@H]5C[C@@H](O)[C@]5(C)[C@@H](C7=CC(=O)OC7)CC[C@]65O)C4)O[C@@H]3C)O[C@@H]2C)C[C@H](O)[C@@H]1O [DIGOXIN] | inactive | Active | 0.42 |  |  |  |  |  |  |  |  |  | 
C[C@H]1O[C@@H](O[C@H]2[C@@H](O)C[C@H](O[C@H]3[C@@H](O)C[C@H](O[C@H]4CC[C@@]5(C)[C@H](CC[C@@H]6[C@@H]5C[C@@H](O)[C@]5(C)[C@@H](C7=CC(=O)O/C7=C\c7ccc(N(C)C)cc7)CC[C@]65O)C4)O[C@@H]3C)O[C@@H]2C)C[C@H](O)[C@@H]1O | inactive | Active | 0.48 | inactive | 9.8 | 2.5 | 1.35 | 0.65 | 20 | Active | 0.26 |  | 
C[C@H]1O[C@@H](O[C@H]2[C@@H](O)C[C@H](O[C@H]3[C@@H](O)C[C@H](O[C@H]4CC[C@@]5(C)[C@H](CC[C@@H]6[C@@H]5C[C@@H](O)[C@]5(C)[C@@H](C7=CC(=O)O/C7=C\c7cccc([N+](=O)[O-])c7)CC[C@]65O)C4)O[C@@H]3C)O[C@@H]2C)C[C@H](O)[C@@H]1O |  |  | 41.3 |  | 11 | 0.68 | 1.07 | 44.1 | 4 | inactive | 65.2 |  | 
C[C@H]1O[C@@H](O[C@H]2[C@@H](O)C[C@H](O[C@H]3[C@@H](O)C[C@H](O[C@H]4CC[C@@]5(C)[C@H](CC[C@@H]6[C@@H]5C[C@@H](O)[C@]5(C)[C@@H](C7=CC(=O)O/C7=C\c7ccc(F)cc7)CC[C@]65O)C4)O[C@@H]3C)O[C@@H]2C)C[C@H](O)[C@@H]1O |  |  | 41.4 |  | 0.34 | 0.89 | 1.31 | 54.1 | 0.66 | inactive | 60.9 |  | 
COc1ccc(/C=C2\OC(=O)C=C2[C@H]2CC[C@]3(O)[C@@H]4CC[C@@H]5C[C@@H](O[C@H]6C[C@H](O)[C@H](O[C@H]7C[C@H](O)[C@H](O[C@H]8C[C@H](O)[C@H](O)[C@@H](C)O8)[C@@H](C)O7)[C@@H](C)O6)CC[C@]5(C)[C@H]4C[C@@H](O)[C@]23C)cc1 |  |  | 79 |  | 0.57 | 1.27 | 0.99 | 78.3 | 0.46 | inactive | 61.4 |  | 
C[C@H]1O[C@@H](O[C@H]2[C@@H](O)C[C@H](O[C@H]3[C@@H](O)C[C@H](O[C@H]4CC[C@@]5(C)[C@H](CC[C@@H]6[C@@H]5C[C@@H](O)[C@]5(C)[C@@H](C7=CC(=O)O/C7=C\c7cccc(Cl)c7Cl)CC[C@]65O)C4)O[C@@H]3C)O[C@@H]2C)C[C@H](O)[C@@H]1O |  |  | 19 |  |  | 0.36 | 0.81 | 15.5 | 18 | inactive | 42.5 |  | 
C[C@H]1O[C@@H](O[C@H]2[C@@H](O)C[C@H](O[C@H]3[C@@H](O)C[C@H](O[C@H]4CC[C@@]5(C)[C@H](CC[C@@H]6[C@@H]5C[C@@H](O)[C@]5(C)[C@@H](C7=CC(=O)O/C7=C\c7ccc(Cl)cc7)CC[C@]65O)C4)O[C@@H]3C)O[C@@H]2C)C[C@H](O)[C@@H]1O |  |  | 23.8 |  |  | 0.72 | 1.21 | 28.7 |  | inactive | 40.1 | inactive | inactive
